From patent US20240417408A1, “SMALL MOLECULE INHIBITORS OF KRAS G12C MUTANT” (MERCK SHARP & DOHME CORP., priority 2021, published 2024) come the findings set out here.

Assay [1] concerns the target T1, interaction between KRAS G12C and cRAF-RBD (Homo sapiens, UniProt P01116, G12C).
T1 construct: TEV protease site (ENLYFQG); made in house; host or cells: E. coli
As to the kind of experiment: Test Example 2: inhibitory activity on interaction between KRAS G12C and cRAF (Alpha technology). The assay is classed as binding. The settings on record: GMPPNP-bound KRAS G12C incubated with compound at 25° C. for 1 hour, then cRAF-RBD. As for the experimental part: Test Example 2: Evaluation of Inhibitory Activity of Compounds on Interaction Between KRAS G12C and cRAF (In Vitro)
Interaction between recombinant KRAS G12C mutant protein (SEQ ID NO: 1) and cRAF RAS-binding domain (cRAF-RBD, amino acids 50-132, Jena Biosciences GmbH) was measured using Alpha technology (PerkinElmer Inc.).
Recombinant KRAS G12C protein with an N-terminal His-tag was expressed in E. coli and purified by affinity chromatography. To prepare GTP-bound form and GDP-bound form of KRAS G12C protein, 50 μM KRAS G12C protein was incubated with 1 mM GMPPNP (Jena Bioscience GmbH) and 1 mM GDP, respectively, in a loading buffer (20 mM Tris-HCl (pH 7.5), 50 mM NaCl, 1 mM DTT and 2.5 mM EDTA) for 1 hour on ice. After the incubation, MgCl2 was added to a final concentration of 10 mM, followed by incubation at room temperature for 30 minutes. The mixture was allowed to pass through a NAP-5 column to remove free nucleotides and purified, and the resultant nucleotide-bound KRAS G12C protein was used for compound evaluation.
For the measurement of the inhibitory activity of compounds on interaction between KRAS G12C and cRAF-RBD, GMPPNP-bound KRAS G12C protein was incubated with various concentrations of compound in a reaction buffer (20 mM Tris-HCl (pH 7.5), 100 mM NaCl, 1 mM MgCl2, 1 mM TCEP, 0.1% Tween 20) at 25° C. for 1 hour. After the incubation, recombinant cRAF-RBD and Alpha detection reagents were added and incubated at room temperature for 1.5 hours for binding. Interaction of KRAS G12C and cRAF-RBD was monitored by measuring Alpha signal. Inhibition % was calculated using the signal from the reaction without test compound (DMSO control) as 0% inhibition and the signal from the reaction using GDP-bound KRAS G12C in place of GMPPNP-bound KRAS G12C as 100% inhibition. IC50 values were calculated from dose titration curve using curve fitting by XLfit software (IDBS).

Assay [2] addresses T2, Recombinant KRAS G12C mutant protein (amino acids 1-169, SEQ ID NO: 1) (Homo sapiens, UniProt P01116, G12C).
T2 construct: His6 (N); TEV protease site (ENLYFQG; named from own knowledge) (N); made in house; host or cells: E. coli
As to the kind of experiment: Test Example 1: inhibitory activity on KRAS G12C nucleotide (GDP-GTP) exchange reaction in vitro. The assay is classed as biochemical. Particulars: BODIPY FL GDP-bound KRAS G12C incubated with compound at 25° C. for 1 hour, then SOS1 and GMPPNP, read-out: GNE IC50. As to the method:
Test Example 1: Evaluation of inhibitory activity of compounds on KRAS G12C nucleotide (GDP-GTP) exchange reaction in vitro
Recombinant KRAS G12C mutant protein (amino acids 1-169, SEQ ID NO: 1) and cleaved recombinant SOS1 (amino acids 564-1049, SEQ ID NO:2) proteins were expressed in E. coli and purified by affinity chromatography.
To prepare BODIPY FL GDP-bound KRAS G12C protein, 50 μM KRAS G12C protein was incubated with 0.5 mM BODIPY FL GDP in a loading buffer (20 mM Tris-HCl (pH 7.5), 50 mM NaCl, 1 mM DTT and 2.5 mM EDTA) for 1 hour on ice. After the incubation, MgCl2 was added to a final concentration of 10 mM, followed by incubation at room temperature for 30 minutes. The mixture was allowed to pass through a NAP-5 column to remove free nucleotides and purified BODIPY FL GDP-bound KRAS G12C protein was used for compound evaluation.
For the measurement of the inhibitory activity of compounds on GDP-GTP exchange rate of recombinant KRAS G12C, BODIPY FL GDP-bound KRAS G12C protein was incubated with various concentrations of compound in a reaction buffer (20 mM Tris-HCl (pH 7.5), 100 mM NaCl, 1 mM MgCl2, 2 mM DTT, 0.1% Tween 20) at 25° C. for 1 hour. After the incubation, recombinant SOS1 and Guanosine-5′-[(β,γ)-imido]triphosphate, Tetralithium salt (GMPPNP) (Jena Bioscience GmbH) were added and incubated at room temperature for 30 minutes to proceed SOS1-dependent GDP-GTP exchange reaction on KRAS G12C. Replacement of BODIPY FL GDP by GMPPNP was measured by calculating the ratio of fluorescence intensities of BODIPY FL before and after the exchange reaction. Inhibition % was calculated by setting the fluorescence ratio from the reaction without test compound (DMSO control) and the fluorescence ratio from the reaction without SOS1 and GMPPNP as 0% and 100% inhibition, respectively. IC50 values were calculated from dose titration curve using curve fitting by XLfit software (IDBS).

The next assay has as its system MIA PaCa-2 cells. The assay can be described thus: Test Example 3: growth inhibition activity on KRAS-G12C mutant cell line (MIA PaCa-2). It counts as cell-based. The settings on record: Homo sapiens, 72 h, MIA PaCa-2, 3-day culture, CellTiter-Glo 3D, read-out: CTX MiaPaCa IC50. As to the method: Test Example 3: Assay of Growth Inhibition Activity on KRAS-G12C Mutant Cell Line (MIA PaCa-2) (In Vitro)
MIA PaCa-2 cells (provided by Sumitomo Dainippon Pharma Co., Ltd.), which are a KRAS-G12C mutant human pancreas cancer cell line, were suspended in a 10% fetal bovine serum-containing RPMI1640 medium (manufactured by Fujifilm Wako Pure Chemical Corporation.). The cell suspension was seeded into each well of a 384-well U bottom microplate and cultured in an incubator containing 5% CO2 gas at 37° C. for 1 day. The compounds obtained in the Examples section were used as test compounds and were dissolved in DMSO, respectively, and each test compound was diluted with DMSO to give a concentration 500 times the final concentration. The resultant solution of the test compound in DMSO was diluted with the medium used for suspending cells and added to each well of the cell-culture plate to give a DMSO final concentration of 0.2%, followed by culture in an incubator containing 5% CO2 gas at 37° C. for another 3 days. The cell count after 3-day culture in the presence of the test compound was measured using CellTiter-Glo 3D Reagent (manufactured by Promega Corporation). To all cells were added with CellTiter-Glo 3D Reagent and mixed for 10 minutes. 30 minutes after mixing, luminescence was measured by a plate reader. The growth inhibition rate was calculated from the following equation, and the concentration of the test compound at which 50% inhibition was achieved (IC50 (nM)) was determined.
[formula] • T: the emission intensity in a well into which a test compound was added. • C: the emission intensity in a well into which a test compound was not added.

T1 sequence (P01116 with tags, fused parts or gaps isoform P01116-2 G12C): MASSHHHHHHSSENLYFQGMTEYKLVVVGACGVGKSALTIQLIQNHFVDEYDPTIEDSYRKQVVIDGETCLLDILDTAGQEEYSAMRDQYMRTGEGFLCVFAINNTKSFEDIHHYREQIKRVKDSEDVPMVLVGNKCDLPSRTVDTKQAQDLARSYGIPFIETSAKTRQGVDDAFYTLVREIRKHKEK
T2 sequence (P01116 with tags, fused parts or gaps isoform P01116-2 G12C): as above

What is called IC50 is the concentration at which inhibition is half-maximal. Regarding `COC1CCN(C/C=C/C(=O)N2CCN(c3nc(OCC4(CN5CCOCC5)CC4)nc4c3COC3(CCc5cccc(Br)c53)C4)C[C@@H]2CC#N)CC1` (stereo partly drawn) [Example 21, 2-((2S)-4-(7-bromo-2′-((1-(morpholinomethyl)cyclopropyl)methoxy)-2,3,5′,8′-tetrahydrospiro[indene-1,7′-pyrano[4,3-d]pyrimidin]-4′-yl)-1-((E)-4-(4-methoxypiperidin-1-yl)but-2-enoyl)piperazin-2-yl)acetonitrile], the IC50 in assay [1] was greater than 6670 nM; in assay [2], 287 nM; in the assay on MIA PaCa-2 cells, 1130 nM.
For `CN1CCC[C@H]1COc1nc2c(c(N3CCN(C(=O)/C=C/CNC4CC5CCC(C4)O5)[C@@H](CC#N)C3)n1)COC(c1cccc3ccccc13)C2` (stereo partly drawn) [Example 3, 2-((2S)-1-((E)-4-((8-oxa-bicyclo[3.2.1]octan-3-yl)-amino)but-2-enoyl)-4-(2-(((S)-1-methylpyrrolidin-2-yl)methoxy)-7-(naphthalen-1-yl)-7,8-dihydro-5H-pyrano[4,3-d]pyrimidin-4-yl)piperazin-2-yl)acetonitrile], in that order: 11500 nM, 5.22 nM and 100 nM.
In the case of `C#Cc1cccc2cc(O)cc([C@@H]3Cc4nc(OC[C@@H]5CCCN5C)nc(N5C[C@H](CC#N)N(C(=O)/C=C/CN6CCC(OC)CC6)C[C@H]5C)c4CO3)c12` [Example 14, 2-((2S,5R)-4-((S)-7-(8-ethynyl-3-hydroxynaph-thalen-1-yl)-2-(((S)-1-meth-ylpyrrolidin-2-yl)methoxy)-7,8-dihydro-5H-pyrano[4,3-d]pyrimidin-4-yl)-1-((E)-4-(4-methoxypiperidin-1-yl)-but-2-enoyl)-5-methylpiper-azin-2-yl)acetonitrile], the IC50 was 531 nM in assay [1], 0.82 nM in assay [2] and 7.88 nM with MIA PaCa-2 cells.
As to `C#Cc1cccc2cc(O)cc([C@@H]3Cc4nc(OCC5(CN(C)C)CC5)nc(N5CCN(C(=O)/C=C/CN6CCC(OC)CC6)[C@@H](CC#N)C5)c4CO3)c12` [Example 13, 2-((S)-4-((S)-2-((1-((dimeth-ylamino)methyl)cycloprop-yl)methoxy)-7-(8-ethynyl-3-hydroxynaphthalen-1-yl)-7,8-dihydro-5H-pyrano[4,3-d]pyrimidin-4-yl)-1-((E)-4-(4-methoxypiperidin-1-yl)-but-2-enoyl)piperazin-2-yl)-acetonitrile], the IC50 in assay [1] came to 51.3 nM; in assay [2], 0.91 nM; in the assay with MIA PaCa-2 cells, 6.21 nM.
Taken in the same sequence, the figures for `C#Cc1cccc2cc(O)cc([C@@H]3Cc4nc(OCC5(COC)CC5)nc(N5CCN(C(=O)/C=C/CN6CCC(OC)CC6)[C@@H](CC#N)C5)c4CO3)c12` [Example 17, 2-((S)-4-((S)-7-(8-ethynyl-3-hydroxynaphthalen-1-yl)-2-((1-(methoxymethyl)-cyclopropyl)methoxy)-7,8-dihydro-5H-pyrano[4,3-d]-pyrimidin-4-yl)-1-((E)-4-(4-methoxypiperidin-1-yl)but-2-enoyl)piperazin-2-yl)-acetonitrile] were greater than 6670 nM, 255 nM and 543 nM.
Consider `COC1CCN(C/C=C/C(=O)N2CCN(c3nc(OC[C@@H]4CCCN4C)nc4c3CO[C@H](c3cc(O)cc5cccc(Br)c35)C4)C[C@@H]2CC#N)CC1` [Example 10, 2-((S)-4-((S)-7-(8-bromo-3-hydroxynaphthalen-1-yl)-2-(((S)-1-methylpyrrolidin-2-yl)methoxy)-7,8-dihydro-5H-pyrano[4,3-d]pyrimidin-4-yl)-1-((E)-4-(4-methoxy-piperidin-1-yl)but-2-enoyl)-piperazin-2-yl)acetonitrile], for which the IC50 in assay [1] turned out to be 107 nM; in assay [2], 0.73 nM; with MIA PaCa-2 cells it was 10.1 nM.
Take `COC1CCN(C/C=C/C(=O)N2CCN(c3nc(OCC4(CN5CCOCC5)CC4)nc4c3COC3(Cc5ccccc5C3)C4)C[C@@H]2CC#N)CC1` [Example 20, (S,E)-2-(1-(4-(4-methoxypiperidin-1-yl)but-2-enoyl)-4-(2′-((1-(morpholinomethyl)cyclopropyl)methoxy)-1,3,5′,8′-tetrahydrospiro[indene-2,7′-pyrano[4,3-d]pyrimidin]-4′-yl)piperazin-2-yl)acetonitrile]: the IC50 in assay [1] is greater than 6670 nM; in assay [2] it was 174 nM; in the assay on MIA PaCa-2 cells it was 3350 nM.
With `C#Cc1cccc2cc(O)cc([C@@H]3Cc4nc(OCC5(CN6CCOCC6)CC5)nc(N5CCN(C(=O)/C=C/CN6CCC(OC)CC6)[C@@H](CC#N)C5)c4CO3)c12` [Example 1, 2-((S)-4-((S)-7-(8-ethynyl-3-hydroxynaphthalen-1-yl)-2-((1-(morpholinomethyl)cyclopropyl)methoxy)-7,8-dihydro-5H-pyrano[4,3-d]pyrimidin-4-yl)-1-((E)-4-(4-methoxypiperidin-1-yl)but-2-enoyl)piperazin-2-yl)acetonitrile], the IC50 in assay [1] worked out at 25.4 nM; in assay [2], 1.02 nM; in the assay with MIA PaCa-2 cells, 7.15 nM.
Taken in the same sequence, the figures for `C#Cc1cccc2cc(O)cc(C3Cc4nc(OC[C@@H]5CCCN5C)nc(N5CCN(C(=O)/C=C/CN[C@H]6CC[C@H](OC)CC6)[C@@H](CC#N)C5)c4CO3)c12` (stereo partly drawn) [Example 9, 2-((2S)-4-(7-(8-ethynyl-3-hydroxynaphthalen-1-yl)-2-(((S)-1-methylpyrrolidin-2-yl)methoxy)-7,8-dihydro-5H-pyrano[4,3-d]pyrimidin-4-yl)-1-((E)-4-(((1r,4S)-4-methoxycyclohexyl)amino)-but-2-enoyl)piperazin-2-yl)-acetonitrile] were 133 nM, 1.27 nM and 40.4 nM.
